Reference: ChEMBL document CHEMBL3297657, “Synthesis and antitumor activities of novel α-aminophosphonate derivatives containing an alizarin moiety” (Eur J Med Chem, 2014)
Activity calls are given as the source filed them. The calls are words filed in the database; no cut-off is given here.

Tests used:
[1] = system: A549; experiment: cells; settings: Homo sapiens, A549, 48 h
Description: Cytotoxicity against human A549 cells after 48 hrs by MTT assay

[2] = system: HepG2; experiment: cells; settings: Homo sapiens, HepG2, 48 h
Description: Cytotoxicity against human HepG2 cells after 48 hrs by MTT assay

[3] = system: KB; experiment: Cytotoxicity against human KB cells after 48 hrs by MTT assay; assay type: functional, cell-based
[4] = system: MGC-803; experiment: Cytotoxicity against human MGC803 cells after 48 hrs by MTT assay; assay type: functional, cell-based; settings: MGC-803, 48 h
[5] = system: HUVEC; experiment: Cytotoxicity against HUVEC after 48 hrs by MTT assay; assay type: cell-based; settings: Homo sapiens
[6] = system: HCT-116; experiment: cells; settings: Homo sapiens, HCT-116, 48 h
Description: Cytotoxicity against human HCT116 cells after 48 hrs by MTT assay

[7] = system: CNE; experiment: Cytotoxicity against human CNE cells after 48 hrs by MTT assay; assay type: functional, cell-based
[8] = system: HeLa; experiment: cells; settings: Homo sapiens, 48 h
Description: Cytotoxicity against human HeLa cells after 48 hrs by MTT assay

[9] = system: NCI-H460; experiment: Cytotoxicity against human NCI-H460 cells after 48 hrs by MTT assay; assay type: functional, cell-based; settings: NCI-H460, 48 h
[10] = system: NCI-H460; experiment: Induction of apoptosis in human NCI-H460 cells assessed as early apoptotic cells at 5 to 20 uM after 24 hrs by Annexin V/propidium iodide staining-based flow cytometry relative to control; assay type: functional, cell-based

| SMILES | IC50 [1] | IC50 [2] | IC50 [3] | IC50 [4] | IC50 [5] | IC50 [6] | IC50 [7] | IC50 [8] | IC50 [9] | Activity [10] |
| --- | --- | --- | --- | --- | --- | --- | --- | --- | --- | --- |
| CCOP(=O)(OCC)C(NC(=O)C(C)Oc1ccc2c(c1O)C(=O)c1ccccc1C2=O)c1ccc(Br)cc1 (stereo not given) | 30.3 µM | 22.2 µM | 0.26 µM | 18.5 µM | 22.2 µM | 12.4 µM | 22.2 µM | 10.9 µM | 7.83 µM | – |
| CCOP(=O)(OCC)C(NC(=O)COc1ccc2c(c1O)C(=O)c1ccccc1C2=O)c1ccccc1Cl (stereo not given) | 38 µM | > 50 µM | 1.55 µM | 39.2 µM | > 50 µM | 16.3 µM | – | > 50 µM | 21.2 µM | – |
| CCOP(=O)(OCC)C(NC(=O)COc1ccc2c(c1O)C(=O)c1ccccc1C2=O)c1ccccc1Br (stereo not given) | 35.8 µM | > 50 µM | 6.64 µM | 18.7 µM | > 50 µM | 17.2 µM | – | > 50 µM | 12 µM | – |
| O=c1[nH]cc(F)c(=O)[nH]1 [FLUOROURACIL] | – | 38.3 µM | 1.23 µM | 46.9 µM | 24.1 µM | 10.1 µM | 45.1 µM | 23.3 µM | 45.1 µM | – |
| CCOP(=O)(OCC)C(NC(=O)COc1ccc2c(c1O)C(=O)c1ccccc1C2=O)c1cccc(OC)c1 (stereo not given) | 44.1 µM | > 50 µM | 15.5 µM | 38 µM | > 50 µM | 49.8 µM | – | > 50 µM | 27.9 µM | – |
| CCOP(=O)(OCC)C(NC(=O)C(C)Oc1ccc2c(c1O)C(=O)c1ccccc1C2=O)c1cccc(F)c1 (stereo not given) | 35.1 µM | > 50 µM | 9.12 µM | 28.9 µM | > 50 µM | 47.1 µM | > 50 µM | > 50 µM | 25.9 µM | – |
| CCOP(=O)(OCC)C(NC(=O)C(C)Oc1ccc2c(c1O)C(=O)c1ccccc1C2=O)c1ccc2ccccc2c1 (stereo not given) | 25.2 µM | 38.9 µM | 1.21 µM | 5.6 µM | 38.9 µM | 23 µM | 49.4 µM | 23.6 µM | 14.1 µM | – |
| CCOP(=O)(OCC)C(NC(=O)COc1ccc2c(c1O)C(=O)c1ccccc1C2=O)c1ccccc1 (stereo not given) | 12.1 µM | 41.4 µM | 6.7 µM | 13 µM | > 50 µM | 17.4 µM | – | 18.5 µM | 11.9 µM | – |
| CCOP(=O)(OCC)C(NC(=O)COc1ccc2c(c1O)C(=O)c1ccccc1C2=O)c1ccc(Br)cc1 (stereo not given) | 45.1 µM | > 50 µM | 3.26 µM | 35.2 µM | > 50 µM | 45.8 µM | – | > 50 µM | 46.2 µM | – |
| CCOP(=O)(OCC)C(NC(=O)C(C)Oc1ccc2c(c1O)C(=O)c1ccccc1C2=O)c1ccccc1 (stereo not given) | 34.6 µM | > 50 µM | 0.65 µM | 6.66 µM | > 50 µM | 8.07 µM | > 50 µM | > 50 µM | 8.11 µM | Active |
| O=C1c2ccccc2C(=O)c2c1ccc(O)c2O [ATHRAQUINONES A] | > 50 µM | > 50 µM | 15.7 µM | 39.4 µM | > 50 µM | > 50 µM | > 100 µM | > 100 µM | > 50 µM | – |
| CCOP(=O)(OCC)C(NC(=O)COc1ccc2c(c1O)C(=O)c1ccccc1C2=O)c1ccccc1F (stereo not given) | 37.8 µM | > 50 µM | 2.6 µM | 27.1 µM | > 50 µM | 14.7 µM | – | > 50 µM | 12.9 µM | – |
| CCOP(=O)(OCC)C(NC(=O)C(C)Oc1ccc2c(c1O)C(=O)c1ccccc1C2=O)c1ccc(Cl)cc1 (stereo not given) | 10.7 µM | 31.8 µM | 0.2 µM | 25.1 µM | 31.8 µM | 15.6 µM | 48.7 µM | 12.7 µM | 5.11 µM | – |
| CCOP(=O)(OCC)C(NC(=O)C(C)Oc1ccc2c(c1O)C(=O)c1ccccc1C2=O)c1ccccc1Br (stereo not given) | 11.4 µM | 24.1 µM | 0.13 µM | 15.1 µM | 24.1 µM | 7.31 µM | 47.3 µM | 41.6 µM | 4.11 µM | Active |
| CCOP(=O)(OCC)C(NC(=O)COc1ccc2c(c1O)C(=O)c1ccccc1C2=O)c1ccc(OC)cc1 (stereo not given) | 42.2 µM | > 50 µM | 7.32 µM | 36.1 µM | > 50 µM | 44.9 µM | – | > 50 µM | 20 µM | – |
| CCOP(=O)(OCC)C(NC(=O)COc1ccc2c(c1O)C(=O)c1ccccc1C2=O)c1cccc(C)c1 (stereo not given) | 47 µM | 28.5 µM | 12 µM | 37.9 µM | > 50 µM | 16 µM | – | 10.6 µM | 33.9 µM | – |
| CCOP(=O)(OCC)C(NC(=O)C(C)Oc1ccc2c(c1O)C(=O)c1ccccc1C2=O)c1ccccc1Cl (stereo not given) | 10.1 µM | 19.9 µM | 0.14 µM | 11 µM | 19.9 µM | 14.8 µM | 43.1 µM | 20.9 µM | 3.8 µM | Active |
| CCOP(=O)(OCC)C(NC(=O)COc1ccc2c(c1O)C(=O)c1ccccc1C2=O)c1ccccc1OC (stereo not given) | 39 µM | > 50 µM | 1.24 µM | 29.2 µM | > 50 µM | 30.2 µM | – | > 50 µM | 20.8 µM | – |
| CCOP(=O)(OCC)C(NC(=O)C(C)Oc1ccc2c(c1O)C(=O)c1ccccc1C2=O)c1cccc(C)c1 (stereo not given) | 25.6 µM | > 50 µM | 9.68 µM | 8.02 µM | > 50 µM | 36.2 µM | 30.5 µM | 17.4 µM | 9.31 µM | Active |
| CCOP(=O)(OCC)C(NC(=O)C(C)Oc1ccc2c(c1O)C(=O)c1ccccc1C2=O)c1cccc(Cl)c1 (stereo not given) | 18.7 µM | 70.8 µM | 0.22 µM | 29 µM | 70.8 µM | 36.3 µM | > 50 µM | 12.9 µM | 9.1 µM | – |
| CCOP(=O)(OCC)C(NC(=O)C(C)Oc1ccc2c(c1O)C(=O)c1ccccc1C2=O)c1ccc(F)cc1 (stereo not given) | 19.4 µM | 25.3 µM | 0.87 µM | 22.9 µM | 25.3 µM | 17.9 µM | > 50 µM | 34.1 µM | 8.92 µM | – |
| CCOP(=O)(OCC)C(NC(=O)C(C)Oc1ccc2c(c1O)C(=O)c1ccccc1C2=O)c1cccc(OC)c1 (stereo not given) | 36 µM | > 50 µM | 5.78 µM | 27.6 µM | > 50 µM | 17 µM | > 50 µM | > 50 µM | 14.9 µM | – |
| CCOP(=O)(OCC)C(NC(=O)C(C)Oc1ccc2c(c1O)C(=O)c1ccccc1C2=O)c1ccc(OC)cc1 (stereo not given) | 33.7 µM | > 50 µM | 1 µM | 22.5 µM | > 50 µM | 13.7 µM | > 50 µM | 14.7 µM | 14.3 µM | – |
| CCOP(=O)(OCC)C(NC(=O)COc1ccc2c(c1O)C(=O)c1ccccc1C2=O)c1ccc(F)cc1 (stereo not given) | 49 µM | > 50 µM | 6.45 µM | 30.9 µM | > 50 µM | 36.3 µM | – | > 50 µM | 47.9 µM | – |
| CCOP(=O)(OCC)C(NC(=O)C(C)Oc1ccc2c(c1O)C(=O)c1ccccc1C2=O)c1cccc(Br)c1 (stereo not given) | 32.8 µM | 23.6 µM | 2.29 µM | 27.5 µM | 23.6 µM | 15.7 µM | > 50 µM | 11 µM | 10.7 µM | – |
| CCOP(=O)(OCC)C(NC(=O)C(C)Oc1ccc2c(c1O)C(=O)c1ccccc1C2=O)c1ccc(C)cc1 (stereo not given) | 38 µM | > 50 µM | 0.99 µM | 27.9 µM | > 50 µM | 37 µM | > 50 µM | > 50 µM | 28.9 µM | – |
| CCOP(=O)(OCC)C(NC(=O)COc1ccc2c(c1O)C(=O)c1ccccc1C2=O)c1ccc(C)cc1 (stereo not given) | 33.8 µM | > 50 µM | 9.37 µM | 12.6 µM | > 50 µM | 13.7 µM | – | > 50 µM | 12.2 µM | – |
